Key:
[1] = target: T1, NHE3 (Homo sapiens, UniProt P48764); test: Cell-based assay of NHE-3 activity (persistent inhibition), human; details: human Persistence, 60 min incubation then washout
T1 construct: expressed in transfected cells
T1 sequence (P48764 26-834): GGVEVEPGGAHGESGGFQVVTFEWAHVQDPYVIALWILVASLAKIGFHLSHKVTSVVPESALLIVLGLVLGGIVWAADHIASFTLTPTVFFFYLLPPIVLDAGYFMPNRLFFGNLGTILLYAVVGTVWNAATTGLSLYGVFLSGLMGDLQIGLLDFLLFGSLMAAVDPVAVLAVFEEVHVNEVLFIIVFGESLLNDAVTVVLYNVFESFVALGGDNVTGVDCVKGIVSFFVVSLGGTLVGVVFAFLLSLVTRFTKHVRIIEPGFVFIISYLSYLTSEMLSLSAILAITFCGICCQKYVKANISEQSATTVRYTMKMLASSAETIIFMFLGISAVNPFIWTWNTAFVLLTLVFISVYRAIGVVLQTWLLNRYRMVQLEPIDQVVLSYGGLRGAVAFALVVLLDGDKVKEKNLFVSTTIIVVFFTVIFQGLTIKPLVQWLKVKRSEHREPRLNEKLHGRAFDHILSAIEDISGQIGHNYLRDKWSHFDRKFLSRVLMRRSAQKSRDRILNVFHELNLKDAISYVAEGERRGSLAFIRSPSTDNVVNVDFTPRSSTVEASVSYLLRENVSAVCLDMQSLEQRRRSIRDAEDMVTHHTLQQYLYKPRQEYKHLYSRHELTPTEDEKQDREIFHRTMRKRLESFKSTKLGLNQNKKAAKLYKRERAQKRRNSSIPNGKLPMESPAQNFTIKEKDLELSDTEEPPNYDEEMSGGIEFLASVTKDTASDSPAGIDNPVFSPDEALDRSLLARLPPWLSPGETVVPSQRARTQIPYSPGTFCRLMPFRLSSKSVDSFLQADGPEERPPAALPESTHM
T1 sequence (Q99653 2-195 partner limits assumed): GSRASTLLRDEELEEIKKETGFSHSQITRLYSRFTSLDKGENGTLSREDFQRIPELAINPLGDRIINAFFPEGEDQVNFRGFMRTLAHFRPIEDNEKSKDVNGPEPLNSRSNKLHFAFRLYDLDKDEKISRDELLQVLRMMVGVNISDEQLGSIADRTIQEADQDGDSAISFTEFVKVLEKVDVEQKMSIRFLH
In short: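 PS120 fibroblasts expressing human NHE3 with NHERF2 exposed to 0-30 μM compound for 60 min at RT, then washed out; cells acid-loaded by NH4Cl prepulse with BCECF-AM and Na+-free buffer. Na+-driven pH recovery started 10 min post-washout; initial rate of BCECF ratio change (FLIPR) taken as activity.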

[2] = target: T1, NHE3; test: Cell-based assay of NHE-3 activity (pre-incubation inhibition), human; details: human Preincubation; for pIC50 / IC50: 0-30 μM test compound
In short: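 PS120 fibroblasts stably expressing human NHE3 and NHERF2, loaded 30 min at 37 °C with 5 μM BCECF-AM in NH4Cl buffer, then acidified 10 min at room temperature in Na+-free buffer with 0–30 μM compound. Initial rate of BCECF fluorescence ratio change (FLIPR) per minute taken as Na+/H+ activity.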

Structure (SMILES)	% inhibition [1]	% inhibition [2]	pIC50 [1]	pIC50 [2]	IC50 [1]	IC50 [2]
CN(C)[C@H]1Cc2c(Cl)cc(Cl)cc2[C@@H]1Oc1ccc(S(=O)(=O)N[C@H]2CCN(CCOCCNC(=O)NCCCCNC(=O)NCCOCCN3CC[C@H](NS(=O)(=O)c4ccc(O[C@H]5c6cc(Cl)cc(Cl)c6C[C@@H]5N(C)C)c(F)c4)C3)C2)cc1F [Example 111, 4-([(1S,2S)-4,6-Dichloro-2-(dimethylamino)-2,3-dihydro-1H-inden-1-yl]oxy)-N—[(S)-1-(20-[(S)-3-([4-([(1S,2S)-4,6-dichloro-2-(dimethylamino)-2,3-dihydro-1H-inden-1-yl]oxy)-3-fluorophenyl]sulfonamido)pyrrolidin-1-yl]-7,14-dioxo-3,18-dioxa-6,8,13,15-tetraazaicosyl)pyrrolidin-3-yl)-3-fluorobenzenesulfonamide; tetra(trifluoroacetate)]	C (>70%)	C (>70%)	C (NHE3 pIC50 > 7)	C (NHE3 pIC50 > 7)		
O=C(NCCCCNC(=O)NCCOCCOCCNS(=O)(=O)c1ccc(O[C@H]2c3cc(Cl)cc(Cl)c3C[C@@H]2N2C3CCCC2CC3)cc1)NCCOCCOCCNS(=O)(=O)c1ccc(O[C@H]2c3cc(Cl)cc(Cl)c3C[C@@H]2N2C3CCCC2CC3)cc1 [Example 70, 3-[2-(2-[2-[(4-[[(1S,2S)-2-[8-azabicyclo[3.2.1]octan-8-yl]-4,6-dichloro-2,3-dihydro-1H-inden-1-yl]oxy]benzene)sulfonamido]ethoxy]ethoxy)ethyl]-1-[4-([[2-(2-[2-[(4-[[(1S,2S)-2-[8-azabicyclo[3.2.1]octan-8-yl]-4,6-dichloro-2,3-dihydro-1H-inden-1-yl]oxy]benzene)sulfonamido]ethoxy]ethoxy)ethyl]carbamoyl]amino)butyl]urea]	C (>70%)	C (>70%)				
CN(C)C(=O)N1CCN([C@H]2Cc3c(Cl)cc(Cl)cc3[C@@H]2Oc2ccc(S(=O)(=O)NCCOCCOCCNC(=O)NCCCCNC(=O)NCCOCCOCCNS(=O)(=O)c3ccc(O[C@H]4c5cc(Cl)cc(Cl)c5C[C@@H]4N4CCN(C(=O)N(C)C)CC4)cc3)cc2)CC1 [Example 76, 4-[(1S,2S)-4,6-dichloro-1-[4-[(2-[2-[2-([[4-([[2-(2-[2-[4-(4-[[(1S,2S)-4,6-dichloro-2-[4-(dimethylcarbamoyl)piperazin-1-yl]-2,3-dihydro-1H-inden-1-yl]oxy]benzene)sulfonamido]ethoxy]ethoxy)ethyl]carbamoyl]amino)butyl]carbamoyl]amino)ethoxy]ethoxy]ethyl)sulfamoyl]phenoxy]-2,3-dihydro-1H-inden-2-yl]-N,N-dimethylpiperazine-1-carboxamide]	A (NHE3 < 40%)	C (>70%)			> 1000 nM	< 100 nM
Cc1cc(S(=O)(=O)N2CC[C@H](COc3ccnc(CNC(=O)NCCCCNC(=O)NCc4cc(OC[C@H]5CCN(S(=O)(=O)c6ccc(O[C@H]7c8cc(Cl)cc(C#N)c8C[C@@H]7N(C)C)c(C)c6)C5)ccn4)c3)C2)ccc1O[C@H]1c2cc(Cl)cc(C#N)c2C[C@@H]1N(C)C [Example 50]	B (40-70%)	B (40-70%)	C (NHE3 pIC50 > 7)	C (NHE3 pIC50 > 7)		
Cc1cc(S(=O)(=O)NCCOCCOCCNC(=O)NCCCCNC(=O)NCCOCCOCCNS(=O)(=O)c2cc(C)c(O[C@H]3c4cc(Cl)cc(Cl)c4C[C@@H]3N(C)C)c(C)c2)cc(C)c1O[C@H]1c2cc(Cl)cc(Cl)c2C[C@@H]1N(C)C [Example 80]	B (40-70%)	B (40-70%)			100 to 1000 nM	100 to 1000 nM

Now from value to compound:

% inhibition [1]	% inhibition [2]	pIC50 [1]	pIC50 [2]	IC50 [1]	IC50 [2]	Structure (SMILES)
A (NHE3 < 40%)	A (NHE3 < 40%)					CN(C)[C@@H]1CCCN([C@H]2Cc3c(C#N)cc(Cl)cc3[C@@H]2Oc2ccc(S(=O)(=O)NCCOCCOCCNC(=O)NCCCCNC(=O)NCCOCCOCCNS(=O)(=O)c3ccc(O[C@H]4c5cc(Cl)cc(C#N)c5C[C@@H]4N4CCC[C@@H](N(C)C)C4)c(F)c3)cc2F)C1 [Example 40, 3-[2-(2-[2-[(4-[[(1S,2S)-6-Chloro-4-cyano-2-[(3R)-3-(dimethylamino)piperidin-1-yl]-2,3-dihydro-1H-inden-1-yl]oxy]-3-fluorobenzene)sulfonamido]ethoxy]ethoxy)ethyl]-1-[4-([[2-(2-[2-[(4-[[(1S,2S)-6-chloro-4-cyano-2-[(3R)-3-(dimethylamino)piperidin-1-yl]-2,3-dihydro-1H-inden-1-yl]oxy]-3-fluorobenzene)sulfonamido]ethoxy]ethoxy)ethyl]carbamoyl]amino)butyl]urea; bis(trifluoroacetic acid)]
C (>70%)	C (>70%)					Cc1cc(S(=O)(=O)NCCOCCOCCNC(=O)NCCCCNC(=O)NCCOCCOCCNS(=O)(=O)c2ccc(O[C@H]3c4cc(Cl)cc(C)c4C[C@@H]3N3CCC[C@@H](N)C3)c(C)c2)ccc1O[C@H]1c2cc(Cl)cc(C)c2C[C@@H]1N1CCC[C@@H](N)C1 [Example 7, 3-[2-(2-[2-[(4-[[(1S,2S)-2-[(3R)-3-Aminopiperidin-1-yl]-6-chloro-4-methyl-2,3-dihydro-1H-inden-1-yl]oxy]-3-methylbenzene)sulfonamido]ethoxy]ethoxy)ethyl]-1-[4-([[2-(2-[2-[(4-[[(1S,2S)-2-[(3R)-3-aminopiperidin-1-yl]-6-chloro-4-methyl-2,3-dihydro-1H-inden-1-yl]oxy]-3-methylbenzene)sulfonamido]ethoxy]ethoxy)ethyl]carbamoyl]amino)butyl]urea]
A (NHE3 < 40%)	B (40-70%)	C (NHE3 pIC50 > 7)	C (NHE3 pIC50 > 7)			CN(C)[C@@H]1CCCN([C@H]2Cc3c(C#N)cc(Cl)cc3[C@@H]2Oc2ccc(S(=O)(=O)NCCOCCOCCNC(=O)NCCCCNC(=O)NCCOCCOCCNS(=O)(=O)c3ccc(O[C@H]4c5cc(Cl)cc(C#N)c5C[C@@H]4N4CCC[C@@H](N(C)C)C4)cc3)cc2)C1 [Example 121, 4-([(1S,2S)-6-Chloro-4-cyano-2-[(R)-3-(dimethylamino)piperidin-1-yl]-2,3-dihydro-1H-inden-1-yl]oxy)-N-[26-([4-([(1S,2S)-6-chloro-4-cyano-2-[(R)-3-(dimethylamino)piperidin-1-yl]-2,3-dihydro-1H-inden-1-yl]oxy)phenyl]sulfonamido)-10,17-dioxo-3,6,21,24-tetraoxa-9,11,16,18-tetraazahexacosyl]benzenesulfonamide]
A (NHE3 < 40%)	B (40-70%)				100 to 1000 nM	CC(=O)N1CCN([C@H]2Cc3c(Cl)cc(Cl)cc3[C@@H]2Oc2ccc(S(=O)(=O)NCCOCCOCCNC(=O)NCCCCNC(=O)NCCOCCOCCNS(=O)(=O)c3ccc(O[C@H]4c5cc(Cl)cc(Cl)c5C[C@@H]4N4CCN(C(C)=O)CC4)c(C)c3)cc2C)CC1 [Example 75, 3-[2-(2-[2-[(4-[[(1S,2S)-2-(4-Acetylpiperazin-1-yl)-4,6-dichloro-2,3-dihydro-1H-inden-1-yl]oxy]-3-methylbenzene)sulfonamido]ethoxy]ethoxy)ethyl]-1-[4-([[2-(2-[2-[(4-[[(1S,2S)-2-(4-acetylpiperazin-1-yl)-4,6-dichloro-2,3-dihydro-1H-inden-1-yl]oxy]-3-methylbenzene)sulfonamido]ethoxy]ethoxy)ethyl]carbamoyl]amino)butyl]urea; bis(trifluoroacetic acid)]
B (40-70%)	C (>70%)			100 to 1000 nM	100 to 1000 nM	C[C@H]1CCCCN1[C@H]1Cc2c(Cl)cc(Cl)cc2[C@@H]1Oc1ccc(S(=O)(=O)NCCOCCOCCNC(=O)NCCCCNC(=O)NCCOCCOCCNS(=O)(=O)c2ccc(O[C@H]3c4cc(Cl)cc(Cl)c4C[C@@H]3N3CCCC[C@@H]3C)cc2)cc1 [Example 67, 3-[2-(2-[2-[(4-[[(1S,2S)-4,6-Dichloro-2-[(2S)-2-methylpiperidin-1-yl]-2,3-dihydro-1H-inden-1-yl]oxy]benzene)sulfonamido]ethoxy]ethoxy)ethyl]-1-[4-([[2-(2-[2-[(4-[[(1S,2S)-4,6-dichloro-2-[(2S)-2-methylpiperidin-1-yl]-2,3-dihydro-1H-inden-1-yl]oxy]benzene)sulfonamide]ethoxy]ethoxy)ethyl]carbamoyl]amino)butyl]urea]
